Test results reported in patent publication EP4800008A1, “PYRAZOLE DERIVATIVE, OR ACCEPTABLE SALT THEREOF OR N-OXIDE THEREOF, AGRICULTURAL AND HORTICULTURAL CHEMICAL, AND INDUSTRIAL MATERIAL PROTECTANT” (Kureha Corporation, priority 2023, dated 2025).

Experiments:
Zymoseptoria tritici = assay: Wheat leaf blight control efficacy test; assay type: in vivo; details: 12.5 ppm, as Test Example 4
Botrytis cinerea = assay: Cucumber gray mold control efficacy test; assay type: in vivo; details: as Test Example 2

CON(C(=O)c1cn(C)nc1C(F)F)C(C)Cc1ccc(C#CCOCc2ccccc2)cc1Cl (stereo not drawn) [Compound I-18]
control efficacy (Zymoseptoria tritici): 100%

CON(C(=O)c1cn(C)nc1C(F)F)C(C)Cc1c(Cl)cc(Cl)cc1Cl (stereo not drawn) [Control compound C]
control efficacy (Botrytis cinerea; 12.5 ppm): 65%
control efficacy (Botrytis cinerea; 100 ppm): 97%
